According to patent US20150038435A1, “N-TERMINALLY MODIFIED OLIGOPEPTIDES AND USES THEREOF” (Novo Nordisk A/S, priority 2012, published 2015):
Blank lines part the entries; values can stand above or below the substance they belong to. *: point of attachment. Lauroyl = CCCCCCCCCCCC(=O)*

How the values were obtained:
[1] = tested on: Chymotrypsin; assay: Inhibition of enzymatic degradation of a model GLP-1 (FRET substrate) by chymotrypsin; format: biochemical; conditions: compound 0.1 mM, buffer containing 8% DMSO
Method in brief: (§1)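 Initial-rate slopes of fluorescence rise (320 nm ex, 405 nm em), fitted over the linear early phase and averaged from duplicates, were plotted against inhibitor concentration and fitted logistically to give EC50. Reactions ran at 37° C in Dulbecco's PBS, with MCA/DNP GLP-1 FRET substrate added as 10 μl of 100 μM stock.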

[2] = Hydrophobicity: retention time during reverse phase HPLC; format: physicochemical; conditions: Acquity CSH C18; pH 7.2 buffer/CH3CN gradient; 40° C.
Source text: The retention time (RT) during reverse phase HPLC was taken as a measure of hydrophobicity of an N-terminally modified peptide or oligopeptide of the invention, where the connection is: The longer the RT, the more hydrophobic N-terminally modified peptide or oligopeptide. The following running conditions were applied during HPLC analysis:
Buffer B: 70% (v/v) aq. CH3CN

[3] = tested on: Trypsin; assay: Inhibition of enzymatic degradation of a model GLP-1 (FRET substrate) by trypsin; format: biochemical; conditions: compound 0.1 mM, buffer containing 8% DMSO
Method in brief: as §1

Substance: N-dodecanoyl-Ala-Ile-Pro-Tyr-OH (Lauroyl-AIPY-OH; SMILES CCCCCCCCCCCC(=O)N[C@@H](C)C(=O)N[C@H](C(=O)N1CCC[C@H]1C(=O)N[C@@H](Cc1ccc(O)cc1)C(=O)O)[C@@H](C)CC) [Example 80]
- Slope of the initial increase in fluorescence obtained during incubation with 0.001 mg/ml Chymotrypsin [1]: 0.10
- RT (retention time during reverse phase HPLC as a measure of hydrophobicity) [2]: 7.24 min
- Slope of the initial increase in fluorescence obtained during incubation with 0.001 mg/ml Trypsin [3]: 1.83

Substance: N-dodecanoyl-Ala-Leu-Pro-Tyr-OH (Lauroyl-ALPY-OH; SMILES CCCCCCCCCCCC(=O)N[C@@H](C)C(=O)N[C@@H](CC(C)C)C(=O)N1CCC[C@H]1C(=O)N[C@@H](Cc1ccc(O)cc1)C(=O)O) [Example 81]
- Slope of the initial increase in fluorescence obtained during incubation with 0.001 mg/ml Chymotrypsin [1]: 0.40
- RT (retention time during reverse phase HPLC as a measure of hydrophobicity) [2]: 7.38 min
- Slope of the initial increase in fluorescence obtained during incubation with 0.001 mg/ml Trypsin [3]: 1.90

Substance: N-dodecanoyl-Ala-Lys-Pro-Tyr-OH (Lauroyl-AKPY-OH; SMILES CCCCCCCCCCCC(=O)N[C@@H](C)C(=O)N[C@@H](CCCCN)C(=O)N1CCC[C@H]1C(=O)N[C@@H](Cc1ccc(O)cc1)C(=O)O) [Example 82]
- Slope of the initial increase in fluorescence obtained during incubation with 0.001 mg/ml Chymotrypsin [1]: 0.24
- RT (retention time during reverse phase HPLC as a measure of hydrophobicity) [2]: 5.07 min
- Slope of the initial increase in fluorescence obtained during incubation with 0.001 mg/ml Trypsin [3]: 1.50

Substance: N-dodecanoyl-Ala-Met-Pro-Tyr-OH (Lauroyl-AMPY-OH; SMILES CCCCCCCCCCCC(=O)N[C@@H](C)C(=O)N[C@@H](CCSC)C(=O)N1CCC[C@H]1C(=O)N[C@@H](Cc1ccc(O)cc1)C(=O)O) [Example 83]
- Slope of the initial increase in fluorescence obtained during incubation with 0.001 mg/ml Chymotrypsin [1]: 0.32
- RT (retention time during reverse phase HPLC as a measure of hydrophobicity) [2]: 6.88 min
- Slope of the initial increase in fluorescence obtained during incubation with 0.001 mg/ml Trypsin [3]: 1.64

Substance: N-dodecanoyl-Ala-Phe-Pro-Tyr-OH (Lauroyl-AFPY-OH; SMILES CCCCCCCCCCCC(=O)N[C@@H](C)C(=O)N[C@@H](Cc1ccccc1)C(=O)N1CCC[C@H]1C(=O)N[C@@H](Cc1ccc(O)cc1)C(=O)O) [Example 84]
- Slope of the initial increase in fluorescence obtained during incubation with 0.001 mg/ml Chymotrypsin [1]: 0.14
- RT (retention time during reverse phase HPLC as a measure of hydrophobicity) [2]: 7.77 min
- Slope of the initial increase in fluorescence obtained during incubation with 0.001 mg/ml Trypsin [3]: 1.43

Substance: N-dodecanoyl-Ala-Pro-Pro-Tyr-OH (Lauroyl-APPY-OH; SMILES CCCCCCCCCCCC(=O)N[C@@H](C)C(=O)N1CCC[C@H]1C(=O)N1CCC[C@H]1C(=O)N[C@@H](Cc1ccc(O)cc1)C(=O)O) [Example 85]
- Slope of the initial increase in fluorescence obtained during incubation with 0.001 mg/ml Chymotrypsin [1]: 1.81
- RT (retention time during reverse phase HPLC as a measure of hydrophobicity) [2]: 6.1 min
- Slope of the initial increase in fluorescence obtained during incubation with 0.001 mg/ml Trypsin [3]: 1.92

Substance: N-dodecanoyl-Ala-Ser-Pro-Tyr-OH (Lauroyl-ASPY-OH; SMILES CCCCCCCCCCCC(=O)N[C@@H](C)C(=O)N[C@@H](CO)C(=O)N1CCC[C@H]1C(=O)N[C@@H](Cc1ccc(O)cc1)C(=O)O) [Example 86]
- Slope of the initial increase in fluorescence obtained during incubation with 0.001 mg/ml Chymotrypsin [1]: 0.33
- RT (retention time during reverse phase HPLC as a measure of hydrophobicity) [2]: 5.64 min
- Slope of the initial increase in fluorescence obtained during incubation with 0.001 mg/ml Trypsin [3]: 1.89

Substance: N-dodecanoyl-Ala-Thr-Pro-Tyr-OH (Lauroyl-ATPY-OH; SMILES CCCCCCCCCCCC(=O)N[C@@H](C)C(=O)N[C@H](C(=O)N1CCC[C@H]1C(=O)N[C@@H](Cc1ccc(O)cc1)C(=O)O)[C@@H](C)O) [Example 87]
- Slope of the initial increase in fluorescence obtained during incubation with 0.001 mg/ml Chymotrypsin [1]: 0.48
- RT (retention time during reverse phase HPLC as a measure of hydrophobicity) [2]: 5.76 min
- Slope of the initial increase in fluorescence obtained during incubation with 0.001 mg/ml Trypsin [3]: 1.91

Substance: N-dodecanoyl-Ala-Trp-Pro-Tyr-OH (Lauroyl-AWPY-OH; SMILES CCCCCCCCCCCC(=O)N[C@@H](C)C(=O)N[C@@H](Cc1c[nH]c2ccccc12)C(=O)N1CCC[C@H]1C(=O)N[C@@H](Cc1ccc(O)cc1)C(=O)O) [Example 88]
- Slope of the initial increase in fluorescence obtained during incubation with 0.001 mg/ml Chymotrypsin [1]: 0.11
- RT (retention time during reverse phase HPLC as a measure of hydrophobicity) [2]: 7.88 min
- Slope of the initial increase in fluorescence obtained during incubation with 0.001 mg/ml Trypsin [3]: 0.80

Substance: N-dodecanoyl-Ala-Tyr-Pro-Tyr-OH (Lauroyl-AYPY-OH; SMILES CCCCCCCCCCCC(=O)N[C@@H](C)C(=O)N[C@@H](Cc1ccc(O)cc1)C(=O)N1CCC[C@H]1C(=O)N[C@@H](Cc1ccc(O)cc1)C(=O)O) [Example 89]
- Slope of the initial increase in fluorescence obtained during incubation with 0.001 mg/ml Chymotrypsin [1]: 0.80
- RT (retention time during reverse phase HPLC as a measure of hydrophobicity) [2]: 6.23 min
- Slope of the initial increase in fluorescence obtained during incubation with 0.001 mg/ml Trypsin [3]: 1.86

Substance: N-dodecanoyl-Ala-Val-Pro-Tyr-OH (Lauroyl-AVPY-OH; SMILES CCCCCCCCCCCC(=O)N[C@@H](C)C(=O)N[C@H](C(=O)N1CCC[C@H]1C(=O)N[C@@H](Cc1ccc(O)cc1)C(=O)O)C(C)C) [Example 90]
- Slope of the initial increase in fluorescence obtained during incubation with 0.001 mg/ml Chymotrypsin [1]: 0.35
- RT (retention time during reverse phase HPLC as a measure of hydrophobicity) [2]: 6.6 min
- Slope of the initial increase in fluorescence obtained during incubation with 0.001 mg/ml Trypsin [3]: 1.25

- RT (retention time during reverse phase HPLC as a measure of hydrophobicity) [2]: 6.6 min
Substance: N-dodecanoyl-Ala-Val-Tyr-OH [Example 112]
- Slope of the initial increase in fluorescence obtained during incubation with 0.001 mg/ml Chymotrypsin [1]: 1.44
- Slope of the initial increase in fluorescence obtained during incubation with 0.001 mg/ml Trypsin [3]: 2.35

- RT (retention time during reverse phase HPLC as a measure of hydrophobicity) [2]: 4.63 min
Substance: N-dodecanoyl-Arg-Ala-Ala-Pro-Tyr-OH [Example 91]
- Slope of the initial increase in fluorescence obtained during incubation with 0.001 mg/ml Chymotrypsin [1]: 0.00
- Slope of the initial increase in fluorescence obtained during incubation with 0.001 mg/ml Trypsin [3]: 1.06

Substance: N-dodecanoyl-Arg-Ala-Pro-Tyr-OH (Lauroyl-RAPY-OH; SMILES CCCCCCCCCCCC(=O)N[C@@H](CCCNC(=N)N)C(=O)N[C@@H](C)C(=O)N1CCC[C@H]1C(=O)N[C@@H](Cc1ccc(O)cc1)C(=O)O) [Example 92]
- Slope of the initial increase in fluorescence obtained during incubation with 0.001 mg/ml Chymotrypsin [1]: 0.23
- RT (retention time during reverse phase HPLC as a measure of hydrophobicity) [2]: 4.84 min
- Slope of the initial increase in fluorescence obtained during incubation with 0.001 mg/ml Trypsin [3]: 1.44

- RT (retention time during reverse phase HPLC as a measure of hydrophobicity) [2]: 5.29 min
Substance: N-dodecanoyl-Arg-Pro-Tyr-OH [Example 113]
- Slope of the initial increase in fluorescence obtained during incubation with 0.001 mg/ml Chymotrypsin [1]: 0.18
- Slope of the initial increase in fluorescence obtained during incubation with 0.001 mg/ml Trypsin [3]: 2.00

- RT (retention time during reverse phase HPLC as a measure of hydrophobicity) [2]: 4.84 min
Substance: N-dodecanoyl-Asn-Ala-Ala-Pro-Tyr-OH [Example 93]
- Slope of the initial increase in fluorescence obtained during incubation with 0.001 mg/ml Chymotrypsin [1]: 0.14
- Slope of the initial increase in fluorescence obtained during incubation with 0.001 mg/ml Trypsin [3]: 1.90

Substance: N-dodecanoyl-Asn-Ala-Pro-Tyr-OH (Lauroyl-NAPY-OH; SMILES CCCCCCCCCCCC(=O)N[C@@H](CC(N)=O)C(=O)N[C@@H](C)C(=O)N1CCC[C@H]1C(=O)N[C@@H](Cc1ccc(O)cc1)C(=O)O) [Example 94]
- Slope of the initial increase in fluorescence obtained during incubation with 0.001 mg/ml Chymotrypsin [1]: 1.83
- RT (retention time during reverse phase HPLC as a measure of hydrophobicity) [2]: 4.77 min
- Slope of the initial increase in fluorescence obtained during incubation with 0.001 mg/ml Trypsin [3]: 1.90

- RT (retention time during reverse phase HPLC as a measure of hydrophobicity) [2]: 5.07 min
Substance: N-dodecanoyl-Asn-Pro-Tyr-OH [Example 114]
- Slope of the initial increase in fluorescence obtained during incubation with 0.001 mg/ml Chymotrypsin [1]: 2.01
- Slope of the initial increase in fluorescence obtained during incubation with 0.001 mg/ml Trypsin [3]: 1.99

- RT (retention time during reverse phase HPLC as a measure of hydrophobicity) [2]: 3.92 min
Substance: N-dodecanoyl-Asp-Ala-Ala-Pro-Tyr-OH [Example 95]
- Slope of the initial increase in fluorescence obtained during incubation with 0.001 mg/ml Chymotrypsin [1]: 0.10
- Slope of the initial increase in fluorescence obtained during incubation with 0.001 mg/ml Trypsin [3]: 1.82

Substance: N-dodecanoyl-Asp-Ala-Pro-Tyr-OH (Lauroyl-DAPY-OH; SMILES CCCCCCCCCCCC(=O)N[C@@H](CC(=O)O)C(=O)N[C@@H](C)C(=O)N1CCC[C@H]1C(=O)N[C@@H](Cc1ccc(O)cc1)C(=O)O) [Example 96]
- Slope of the initial increase in fluorescence obtained during incubation with 0.001 mg/ml Chymotrypsin [1]: 1.63
- RT (retention time during reverse phase HPLC as a measure of hydrophobicity) [2]: 3.86 min
- Slope of the initial increase in fluorescence obtained during incubation with 0.001 mg/ml Trypsin [3]: 1.78

- RT (retention time during reverse phase HPLC as a measure of hydrophobicity) [2]: 3.91 min
Substance: N-dodecanoyl-Asp-Pro-Tyr-OH [Example 115]
- Slope of the initial increase in fluorescence obtained during incubation with 0.001 mg/ml Chymotrypsin [1]: 2.04
- Slope of the initial increase in fluorescence obtained during incubation with 0.001 mg/ml Trypsin [3]: 1.73

- RT (retention time during reverse phase HPLC as a measure of hydrophobicity) [2]: 4.82 min
Substance: N-dodecanoyl-Gln-Ala-Ala-Pro-Tyr-OH [Example 102]
- Slope of the initial increase in fluorescence obtained during incubation with 0.001 mg/ml Chymotrypsin [1]: 0.14
- Slope of the initial increase in fluorescence obtained during incubation with 0.001 mg/ml Trypsin [3]: 1.66

Substance: N-dodecanoyl-Gln-Ala-Pro-Tyr-OH (Lauroyl-QAPY-OH; SMILES CCCCCCCCCCCC(=O)N[C@@H](CCC(N)=O)C(=O)N[C@@H](C)C(=O)N1CCC[C@H]1C(=O)N[C@@H](Cc1ccc(O)cc1)C(=O)O) [Example 103]
- Slope of the initial increase in fluorescence obtained during incubation with 0.001 mg/ml Chymotrypsin [1]: 1.13
- RT (retention time during reverse phase HPLC as a measure of hydrophobicity) [2]: 4.92 min
- Slope of the initial increase in fluorescence obtained during incubation with 0.001 mg/ml Trypsin [3]: 1.78

- RT (retention time during reverse phase HPLC as a measure of hydrophobicity) [2]: 5.08 min
Substance: N-dodecanoyl-Gln-Pro-Tyr-OH [Example 116]
- Slope of the initial increase in fluorescence obtained during incubation with 0.001 mg/ml Chymotrypsin [1]: 1.48
- Slope of the initial increase in fluorescence obtained during incubation with 0.001 mg/ml Trypsin [3]: 1.75

- RT (retention time during reverse phase HPLC as a measure of hydrophobicity) [2]: 3.83 min
Substance: N-dodecanoyl-Glu-Ala-Ala-Pro-Tyr-OH [Example 104]
- Slope of the initial increase in fluorescence obtained during incubation with 0.001 mg/ml Chymotrypsin [1]: 0.16
- Slope of the initial increase in fluorescence obtained during incubation with 0.001 mg/ml Trypsin [3]: 1.63
